Entries after “also recorded” stand apart in the source; their conditions may differ. Bridges are numbered along the chain shown (N, C = ends). Where no end group is shown, it is not given here. [ ]: non-standard residue; d: D form.
System: recombinant gp120 from HIV-1 strain IIIB
Assay: Direct ELISA: binding of gp120 to His-tagged peptides on Ni-chelate plates
Settings: peptide coated at 4 µM on Ni-chelate plates; gp120(IIIB) 0.25 µg/mL, 2 h; absorbance at 492 nm, blank-corrected; Ar relative to CD4-M1 = 1; at least twice, each in duplicate
Procedure: Antibody buffer: Phosphate buffer pH 7.2 containing 1% BSA and 0.1% Tween 20. The wells of 96-well Ni-Chelate plates from Thermo Scientific were coated overnight at 4 °C with peptide solution (100 µL, 4 µM in coupling buffer). After unspecific binding had been blocked with a blocking buffer (1 h at room temperature, gentle agitation), the plates were washed twice. Plates were then incubated for 2 h with 100 µL/well gp120(IIIB) from ImmunoDiagnostics at 0.25 µg/mL (Figure 3, left), or in serial dilutions starting at 2 µg/mL (Figure 3, right) in sample buffer, and washed four times. Following incubation with 100 µL/well sheep-anti-HIV-1-gp120 (D7324) from Aalto Bio Reagents (1:5000 in antibody buffer) for 1 h at room temperature, plates were washed four times with washing buffer, incubated for 1 h at room temperature with 100 µL/well rabbit-anti-sheep-IgG peroxidase conjugate from Dianova (diluted 1:5000 with antibody buffer), and washed four times with washing buffer. Plates were developed with 100 µL/well substrate solution (1 mg/mL OPD in 0.03% H2O2/H2O) in the dark (approx. 20 min), and the reaction was stopped by addition of 2 M sulfuric acid (50 µL/well). Absorbances (A) were read at 492 nm by using a multichannel photometer (Infinite F200 from Tecan).
Relative Affinities (Ar) were calculated according to the following formula:
Ar = (Apeptide – Ablank) / (A1– Ablank)

| Substance | binding to gp120(IIIB) (relative affinity Ar) |
| --- | --- |
| CD4-M7: CD4 residues 34–48, cyclic, F43-D-Phe (His6-CIKILGNQGS[dF]LTKGPC; disulfide 1-17 (inferred)) | did not bind to gp120 |
| CD4-M4: His6-tagged linear peptide presenting the CDR2-like loop of CD4, residues 34–48 (His6-IKILGNQGSFLTKGP) | only the longer peptide CD4-M1 is recognized by gp120 |
| CD4-M5: CD4 residues 34–48, cyclic through a disulfide between added cysteines (His6-CIKILGNQGSFLTKGPC; disulfide 1-17 (inferred)) | strongly enhanced |
| CD4-M6: CD4 residues 34–48, cyclic, F43A | largely abrogated |
| CD4-M3: CD4 residues 22–64, cyclic, F43A, R58A, R59A, S23C, D63C | largely abrogated; also recorded: complete loss of binding |
| CD4-M2: His6-tagged cyclic (disulfide) peptide, CD4 residues 22–64, S23C, D63C | strongly enhanced |
| CD4-M1: His6-tagged linear peptide presenting CD4 residues 22–64 | is recognized by gp120 |

System: gp120(MN)
Assay: not given
Settings: CD4-M5 60 µM or sCD4 0.4 µg/mL pre-incubated 10 min with gp120(MN) 0.5 µg/mL; 2 h on X5-coated plate; absorbance at 492 nm; at least twice, each in duplicate

| Substance | enhancement of binding of gp120(MN) to the CD4i antibody X5 |
| --- | --- |
| CD4-M5: CD4 residues 34–48, cyclic through a disulfide between added cysteines (His6-CIKILGNQGSFLTKGPC; disulfide 1-17 (inferred)) | able to enhance binding of gp120 to the CD4i antibody mAb X5 |
